One molecule from US12214036B2, “Combination therapy comprising AXL/MER and PD-1/PD-L1 inhibitors” (Incyte Corporation, priority 2020, dated 2025) can be followed below.

The subject of this assay is 4T1 tumor. Description: 4T1 syngeneic tumor model. It counts as in vivo, BALB/c mice. The protocol:
To test potential immunomodulatory activity of Compound 1 in vivo, antitumor efficacy studies were performed in syngeneic tumor models.
MBT-2 cells were obtained from the Japanese Collection of Research Bioresources Cell Bank and were maintained in DMEM supplemented with 10% FBS. MC38 cells were obtained from the NCI. 4T1 cells were obtained from ATCC and maintained in RPMI media supplemented with 10% FBS. For MBT-2 experiments, 5×10^5 MBT-2 cells were inoculated subcutaneously into the right hind flank of 6- to 8-week-old C3H mice or athymic nude mice (Charles River Laboratories, Wilmington, Mass.). For MC38 studies, 12-week old female C57BL/6 mice were inoculated with brei of MC38 tumors (in-vivo passage 6) into the right hind flank. For 4T1 studies, 7.5×10^5 4 T1 cells were inoculated subcutaneously into the right hind flank of 6- to 8-week-old female BALB/c mice or athymic nude mice (Charles River Laboratories). […] Mice were monitored for tumor growth and overt tolerability over the course of the experiment. […] Tumor volume was calculated using the formula (L×W^2)/2, where L and W refer to the length and width dimensions, respectively. Tumor growth inhibition (TGI) was calculated using the formula (1−(VT/VC))×100, where VT is the tumor volume of the treatment group on the last day of treatment, and VC is the tumor volume of the control group on the last day of treatment. […]

Regarding `CC(C)C(=O)N1CCC(c2cc(-c3ccc(NC(=O)c4cn(C(C)C)c(=O)n(-c5ccccn5)c4=O)cc3)c3c(N)ncnn23)CC1` [Compound 1, N-(4-(4-Amino-7-(1-isobutyrylpiperidin-4-yl)pyrrolo[1,2-f][1,2,4]triazin-5-yl)phenyl)-1-isopropyl-2,4-dioxo-3-(pyridin-2-yl)-1,2,3,4-tetrahydropyrimidine-5-carboxamide], under “4T1 in BALB/c mice, oral BID, FIG. 7B”, the “antitumor efficacy (tumor volume)” value was “dose-dependent efficacy”. Also, the “ratio of M1-like to M2-like macrophages” value (4T1 tumors, flow cytometry, FIG. 7D) is listed as “increased the ratio of M1-like to M2-like macrophages in a dose-dependent manner”.
